Columns and labels:
[1] = system: Ac-α-tubulin (substrate for HDAC6); assay: Western blot of Ac-α-tubulin in HCT-116 cells; type: cell-based; details: HCT-116, 5−20 μM, 24 h
Protocol: Since HDACs regulate the acetylation status of histone and nonhistone proteins in cells, the acetylation levels of histone H3 (a known substrate for HDACs 1, 2, and 3) and α-tubulin (a known substrate for HDAC6) are frequently used as markers of cellular HDAC activity. […] HCT-116 cells were incubated with compound 10e (5−20 μM) for 24 h, and the levels of acetylation of histone H3 and α-tubulin were detected by the Western blot. […]
with 75% cold ethanol at 4 °C overnight. After that, fixed cells were washed with PBS. Then, cells were isolated by centrifugation and stained with propidium iodide (KeyGEN BioTECH, China) for 30 min. The samples were measured using flow cytometry and analyzed by Flowjo software.
Section S 1.6 Western blot assay
Total cell lysates from cultured HCT-116 cells after treatment with compound 10e as mentioned earlier were obtained by lysing the cells in ice-cold RIPA buffer with protease and phosphatase inhibitor and stored at -20°C for future use. The protein concentrations were quantified by the Bradford method (Bio-Rad) using a Multimode Varioscan instrument (Thermo Fischer Scientific). […]
The in vivo antitumor activity of compound 10e was evaluated in the mouse colon carcinoma cell line CT-26 in BALB/c mice as described previously. […]

[2] = General toxicity in CT26 tumor-bearing BALB/c mice (body weight, H&E of organs); type: in vivo; details: 150 mg/kg ip every 3 days for 21 days
Protocol: After that, fixed cells were washed with PBS. Then, cells were isolated by centrifugation and stained with propidium iodide (KeyGEN BioTECH, China) for 30 min. The samples were measured using flow cytometry and analyzed by Flowjo software.
Section S 1.6 Western blot assay […]
earlier were obtained by lysing the cells in ice-cold RIPA buffer with protease and phosphatase inhibitor and stored at -20°C for future use. The protein concentrations were quantified by the Bradford method (Bio-Rad) using a Multimode Varioscan instrument (Thermo Fischer Scientific). […]
and transferred to a polyvinylidene difluoride (PVDF) membrane (Amersham Biosciences). After the membrane was blocked at room temperature for 2 h in blocking solution, primary antibody was added and incubated at 4°C overnight. Ac-α-tubulin, Ac-histone H3 and GAPDH antibodies were purchased from Imgenex, USA. After three TBST washes, the membrane was incubated with corresponding horseradish peroxidase-labeled secondary antibody (1:2,000) (Santa Cruz) at room temperature for 1 h. Membranes were washed with TBST three times for 15 min and the protein bands were detected with chemiluminescence reagent (Thermo Fischer Scientific). The X-ray films were developed using developer and fixed with fixer solution.
Section S 1.7 In vivo antitumor efficacy […]
line CT-26 in BALB/c mice as described previously. Five-week-old male BALB/c mice were purchased from the Shanghai Ling Chang biotechnology company (China), and tumors were induced through subcutaneous injection of 1 × 10^7 cells in 100 µL of sterile PBS into the dorsal region. The animals were divided into four groups, starting on the second day. When the tumors reached a volume of 50−100 mm3 in all mice, the first group was administered intraperitoneally with an equivalent volume of 5% dextrose as the vehicle control. The second group was treated with […]
treated with complex 10e at doses of 150 mg/kg body weight once every 3 days for 3 weeks, respectively. All compounds were dissolved in vehicle. Tumor volumes and body weights were […]

O=C(CCCCCCNc1ccc(NC(=O)c2cnc3scc(-c4ccc(Br)cc4)n23)cc1)NO [Compound 10e, 3-(4-Bromophenyl)-N-{4-[(7-(hydroxyamino)-7-oxoheptyl)amino]phenyl}imidazo[2,1-b]thiazole-5-carboxamide]
Ac-α-tubulin levels [1]: markedly increased | histology of liver, spleen, and kidney (H&E staining) [2]: no obvious histological differences | influence on body weight of the mice ([2]; versus vehicle group): no obvious influence
